Assay results from US9474911B2, “Delivery of large molecular weight biologically active substances” (PhotoKinetix Holdings Inc., priority 2011, dated 2016).
Read-outs that look alike come from different tables or passages of the source.

How the values were obtained:
[1] = 24 hours
[2] = 450 nm light pulsed at 100 cps; 24 hours; p<0.05
[3] = diabetic rats; photokinetic delivery (Kulp et al., 2010); cited from earlier work

## HGH: Human growth hormone with a molecular weight of 22,124 Da
[1]; 350, 390, 405 and 450 nm at 24 cps, donor 270 ng/ml, p<0.001
  transdermal permeation flux of HGH, photokinetic compared to passive permeation: significantly increased

## Hyaluronic acid [2,100 kDa hyaluronic acid]
[1]; 390, 405 and 450 nm at 24 cps and 405 nm at 100 cps, p<0.05
  transdermal flux rate, photokinetic compared to passive permeation control: significantly higher than passive permeation control samples
[1]; 390 nm, 405 nm and 436 nm light, p<0.05
  transdermal flux rate, 24 cps compared to 100 cps: significantly higher than 390 nm, 405 nm, and 436 nm light pulsed at 100 cps

## Hyaluronic acid [69 kDa hyaluronic acid]
[1]; 405 nm light, p<0.05
  transdermal flux rate, 24 cps compared to 100 cps: significantly higher than 405 nm light pulsed at 100 cps
[1]
  transdermal flux rate, photokinetic compared to passive permeation: significantly higher than passive permeation
[2]
  intradermal deposition, photokinetic compared to passive control: significantly higher intradermal deposition

## insulin: insulin, molecular weight of about 5,730 Da
[3]
  blood sugar levels: blood sugar levels were reduced
